{"source": "paper PMC9415608", "about": "“Design, Synthesis and Biological Investigation of 2-Anilino Triazolopyrimidines as Tubulin Polymerization Inhibitors with Anticancer Activities” (Pharmaceuticals, 2022)", "key": {"HT29": {"system": "HT29", "assay": "In vitro cell growth inhibition, resazurin viability assay", "type": "cell-based, human", "procedure": "(§1) All the cell lines used in this paper were of human origin and purchased from the American Type Culture Collection (ATCC, Manassas, VA, USA). Colon adenocarcinoma (HT-29), non-small cell lung carcinoma (A549), cervix carcinoma (HeLa) and breast adenocarcinoma (MDA-MB-231) cells were grown in RPMI (HT29) or DMEM (A549, HeLa, MDA-MB-231) medium (Gibco, Milano, Italy). Both media were supplemented with 115 units/mL of penicillin G (Gibco, Milano, Italy), 115 μg/mL of streptomycin (Invitrogen, Milano, Italy) and 10% fetal bovine serum (Invitrogen, Milano, Italy). All cell lines were grown at 37 °C in a humidified 5% CO2 atmosphere. The cells were grown in 2 mL of complete medium.\n(§2) Stock solutions were prepared for each compound by dissolving in DMSO at the final concentration of 10 mM.\n(§3) The cells were seeded in 96-well plates at the appropriate density for each cell line. The respective cell line densities used for the antiproliferative assay were HeLa and HT29 5000 cells/well, A549 4000 cells/well and MDA-MB-231 7000 cells/well. The total volume of medium was 100 µL. After 24 h, the cells were treated by performing serial 5-fold dilutions of the tested compounds starting from a concentration of 10 μM. All experimental conditions were tested in triplicate for statistical analysis. After 72 h of incubation, 10 μL of 100 μg/mL resazurin solution was added to each well and the plate was re-incubated for 3–4 h. The fluorescence of the wells in each plate was monitored using a Spark 10M spectrophotometer (Tecan Group Ltd., Mannedorf, Switzerland) with a 535 nm excitation wavelength and a 600 nm emission wavelength."}, "HeLa": {"system": "HeLa", "assay": "In vitro cell growth inhibition, resazurin viability assay", "type": "cell-based, human", "procedure": "as §1, §2, §3"}, "MDA-MB-231": {"system": "MDA-MB-231", "assay": "In vitro cell growth inhibition, resazurin viability assay", "type": "cell-based, human", "procedure": "as §1, §2, §3"}, "[1]": {"system": "MDA-MB-231, HeLa, A549 and HT-29 cancer cell lines", "assay": "Antiproliferative activity stated across the panel of cancer cell lines", "type": "cell-based, human", "conditions": "for IC50: Homo sapiens", "procedure": "as §1, §2, §3"}, "Bovine brain tubulin [2]": {"system": "Bovine brain tubulin", "assay": "Inhibition of tubulin polymerization (turbidimetric assembly assay)", "type": "biochemical", "procedure": "(§4) Bovine brain tubulin was purified as described previously. To evaluate the effects of the compounds on tubulin assembly in vitro [80], varying concentrations were preincubated with 10 μM tubulin in 0.8 M monosodium glutamate (pH 6.6) at 30 °C and the reaction mixtures then cooled to 0 °C. After addition of GTP, the mixtures were transferred to 0 °C cuvettes in Beckman Coulter (Brea, CA, USA) DU-7400/DU-7500 recording spectrophotometers equipped with electronic temperature controllers and warmed to 30 °C, and the assembly of tubulin was observed turbidimetrically. […] Inhibition of colchicine binding to tubulin was measured as described before, except that the reaction mixtures contained 0.5 μM tubulin and 5 μM each of [^3H]colchicine and test compound. Only one DEAE-cellulose filter was used per sample, and filtration was by gravity.\n(§5) Bovine brain tubulin (see ref. [79] for details of purification) was used to examine effects on tubulin polymerization and colchicine binding. Briefly, in the polymerization experiments, different compound concentrations were preincubated with 10 µM tubulin for 15 min at 30 °C and cooled on ice. After GTP was added to each reaction mixture, the samples were transferred to 0 °C cuvettes in recording spectrophotometers with electronic temperature controllers. The temperature was raised to 30 °C over about 30 s, and turbidity development was followed for 20 min at 350 nm. […] In the current studies, [^3H]colchicine (from American Radiolabeled Corp., St. Louis, MO) binding was measured after 10 min at 37 °C. Reaction mixtures contained 0.5 µM tubulin and 5.0 µM each of the [^3H]colchicine and the potential inhibitor, and a single DEAE-cellulose filter was used for each sample, with gravity filtration."}, "Bovine brain tubulin [3]": {"system": "Bovine brain tubulin", "assay": "Inhibition of [3H]colchicine binding to tubulin", "conditions": "tubulin 0.5 µM, [3H]colchicine 5 µM, tested compound 5 µM", "procedure": "as §4, §5"}, "HeLa cells [4]": {"system": "HeLa cells", "assay": "Cell cycle analysis by flow cytometry (PI)", "type": "cell-based, human", "procedure": "For these experiments, HeLa cells were used, which were seeded in 6-well plates at a concentration of 5 × 10^5/well in a final volume of 2 mL culture medium. The cells were then treated with the test compounds for 24 h at the indicated concentrations. After this incubation period, the cells were detached with trypsin-EDTA and harvested by centrifugation. The pellet thus obtained was fixed in 70% ice-cold ethanol.\nAfter this incubation period, the cells were detached with trypsin-EDTA and harvested by centrifugation. The pellet thus obtained was fixed in 70% ice-cold ethanol for at least 1 h. The cells thus fixed were treated with a 0.1% v/v solution of Triton_X-100 in phosphate buffered saline (PBS) containing RNAseA and propidium iodide (PI) at the final concentration of 0.02 mg/mL. The cells were incubated at room temperature for 30 min and then analyzed on a Cytomic FC500 flow cytometer (Beckman Coulter) in the FL3 channel. DNA histograms were analyzed using MultiCycle for Windows (Phoenix Flow Systems, San Diego, CA, USA)."}, "HeLa cells [5]": {"system": "HeLa cells", "assay": "Mitochondrial potential, JC-1 flow cytometry", "type": "cell-based, human", "conditions": "24 h treatment, increased further at 48 h", "procedure": "The analysis of the mitochondrial potential was carried out by flow cytometric analysis. Briefly, the cells treated with the test compound were labeled with the JC-1 dye as previously described. The labeled cells were analyzed using the Coulter Cytomics FC500 (Beckman Coulter) in the FL1 and FL2 channel, respectively."}, "HeLa cell xenograft": {"system": "HeLa cell xenograft", "assay": "Zebrafish xenograft model with DiI-labeled HeLa cells", "type": "in vivo, Zebrafish (Danio rerio)", "conditions": "24 h treatment, 30 or 300 nM", "description": "Prior to microinjections into Tg zebrafish embryos (fli1: EGFP), HeLa tumor cells were labeled with the VybrantTM DiI dye (Invitrogen, ThermoFisher, Carlsbad, CA, USA). The fluorescent cells were loaded into borosilicate glass capillary needles (OD/ID: 1.00/0.75 mm, World Precision Instruments (WPI, Friedberg, Germany) and injected (200 cells), through a pneumatic picopump, into the Cuvier duct of 48 hpf embryos previously anesthetized with tricaine (0.02%, Sigma-Aldrich, Milan, Italy).\nAfter injection, the xenograft-harboring larvae were incubated to recover at 34° C in fish water containing phenylthiourea (PTU) to inhibit the pigmentation process. After 2 h from the injection, the embryos were examined to ensure homogeneity of the xenografts. For drug treatments, only successfully injected xenograft larvae were selected, with approximately 200 HeLa fluorescent cells scattered around the caudal area.\nThe injected xenografts were exposed to the doses of 3d used above with DMSO as control.\nFor cancer cell imaging and fluorescence quantification, anesthetized embryos were distributed to 96-well plates with one embryo/well. Initially (time 0 h, pre-treatment) and after one-day post-treatment, the tumors were photographed with a Zeiss AxioObserver microscope for live-cell imaging."}}, "note": "Where two headings read alike, the source gives them in different places."}
{"smiles": "COc1cc(-c2ccnc3nc(Nc4ccc(C)cc4)nn23)cc(OC)c1OC", "note": "[Compound 3d, N-(p-Tolyl)-7-(3,4,5-trimethoxyphenyl)-[1,2,4]triazolo[1,5-a]pyrimidin-2-amine]", "values": [{"measurement": "fold greater activity than CA-4", "setting": "HT29; HT-29 cells", "value": 100, "unit": "fold"}, {"measurement": "IC50", "setting": "HT29; Homo sapiens, HT-29, 72 h, resazurin, mean ± SE", "value": "0.03 ± 0.003", "unit": "µM"}, {"measurement": "fold less potent than CA-4", "setting": "HeLa; HeLa cells", "value": 10, "unit": "fold"}, {"measurement": "IC50", "setting": "HeLa; Homo sapiens, 72 h, resazurin, mean ± SE", "value": "0.038 ± 0.009", "unit": "µM"}, {"measurement": "IC50", "setting": "MDA-MB-231; Homo sapiens, MDA-MB-231, 72 h, resazurin, mean ± SE", "value": "0.43 ± 0.11", "unit": "µM"}, {"measurement": "fold less potent than CA-4", "setting": "MDA-MB-231; MDA-MB-231 cells", "value": 100, "unit": "fold"}, {"measurement": "fold less active than 2a as antiproliferative agent", "setting": "[1]; HeLa, HT-29 and A549 cells", "value": "1-2 fold"}, {"measurement": "IC50", "setting": "[1]; in the four tumor cell lines examined, read-out: IC50s, range", "value": "30 to 430", "unit": "nM"}, {"measurement": "IC50", "setting": "[1]; on HeLa, A549 and HT-29 cancer cells, read-out: IC50 values, range", "value": "30 to 43", "unit": "nM"}, {"measurement": "fold more potent than the 7-(3′,4′,5′-trimethoxyanilino) counterpart", "setting": "[1]; antiproliferative agent", "value": "4–30 fold"}, {"measurement": "fold more active than CA-4 as inhibitor of tubulin assembly", "setting": "Bovine brain tubulin [2]", "value": 2, "unit": "fold"}, {"measurement": "fold more potent than 2a as inhibitor of tubulin assembly", "setting": "Bovine brain tubulin [2]", "value": "~2", "unit": "fold"}, {"measurement": "IC50", "setting": "Bovine brain tubulin [2]; tubulin at 10 μM, 20 min incubation, read-out: Tubulin Assembly IC50 ± SD", "value": "450 ± 100", "unit": "nM"}, {"measurement": "Colchicine Binding % Inhibition ± SD", "setting": "Bovine brain tubulin [3]", "value": "72 ± 5", "unit": "%"}, {"measurement": "concentration at which increase in G2/M cells was evident", "setting": "HeLa cells [4]; 24 h", "value": 25, "unit": "nM"}, {"measurement": "effect on cell cycle (G2/M)", "setting": "HeLa cells [4]; 24 h, 10, 25 or 50 nM", "value": "significant G2/M arrest in a concentration-dependent manner"}, {"measurement": "mitochondrial depolarization (JC-1 monomers)", "setting": "HeLa cells [5]", "value": "significant increase in the percentage of monomers"}, {"measurement": "fluorescence intensity of tumor xenografts", "setting": "HeLa cell xenograft", "value": "decreased in a dose-dependent manner, reaching statistical significance at 300 nM"}, {"measurement": "number of disseminated cancer cells", "setting": "HeLa cell xenograft", "value": "significantly reduced the number of disseminated cancer cells"}]}
